PMC5408584 (Lipids, 2016)

Key:
[1] = tested on: human FABP1; settings: cited from earlier work
[2] = tested on: L-cells; experiment: Cellular uptake of NBD-labeled probes by confocal imaging; format: cell-based, murine; settings: Fig 3B
[3] = target: T1, rat FABP1 (Rattus norvegicus, UniProt P02692); settings: cited from earlier work; for number of ligand molecules bound per FABP1 (binding sites): rat FABP1, fractional saturation curves, Fig 2B; for Kd: read-out: Kd, direct binding of NBD-labeled ligand, rat FABP1, mean ± SE n=3, Fig 2B
T1 sequence (P02692 1-127): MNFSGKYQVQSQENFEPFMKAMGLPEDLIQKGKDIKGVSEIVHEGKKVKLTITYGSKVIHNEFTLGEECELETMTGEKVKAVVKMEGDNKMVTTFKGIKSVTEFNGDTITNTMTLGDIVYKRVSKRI

[4] = tested on: human FABP1 T94A variant; settings: T94A variant vs WT human FABP1; cited from earlier work
[5] = target: T1, rat FABP1; settings: read-out: Ki, displacement of FABP1-bound cis-parinaroyl-CoA; rat FABP1, mean ± SE n=3, Fig 1A; cited from earlier work
[6] = target: T2, human WT FABP1 (Homo sapiens, UniProt P07148); experiment: DAUDA fluorescent ligand displacement assay, human FABP1; format: binding; settings: AEA 0–6μM, Fig 1B
T2 sequence (P07148 1-127): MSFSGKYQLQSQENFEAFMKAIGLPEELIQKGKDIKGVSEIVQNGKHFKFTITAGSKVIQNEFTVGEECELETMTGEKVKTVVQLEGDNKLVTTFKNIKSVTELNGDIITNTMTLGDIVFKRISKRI

[7] = target: T2, human WT FABP1; experiment: cis-parinaroyl-CoA fluorescent ligand displacement assay, human FABP1; format: binding; settings: AEA 0–6μM, Fig 1B
[8] = target: human FABP1; settings: read-out: Ki (printed Kids), ANS displacement; cited from earlier work

## CCCCCCCC/C=C\CCCCCCCC(=O)SCCNC(=O)CCNC(=O)[C@H](O)C(C)(C)COP(=O)(O)OP(=O)(O)OC[C@H]1O[C@@H](n2cnc3c(N)ncnc32)[C@H](O)[C@@H]1OP(=O)(O)O [oleoyl-CoA]
[1]; human vs rat FABP1 within the same study
  fold higher affinity of human FABP1 compared to rat FABP1: 2.2 fold

## O=C(CCC/C=C\C/C=C\C/C=C\C/C=C\CCCCCNc1ccc([N+](=O)[O-])c2nonc12)NCCO [NBD-AEA, 20-[(7-nitro-2-1,3-benzoxadiazol-4-yl)amino] arachidonoylethanolamide]
[2]
  maximal uptake, fold higher than that of NBD-ARA: at least 1.6 fold
[3]
  number of ligand molecules bound per FABP1 (binding sites): single
  Kd: 800 ± 200 nM

## CC(C)CCC[C@@H](C)[C@H]1CC[C@H]2[C@@H]3CC=C4C[C@@H](O)CC[C@]4(C)[C@H]3CC[C@]12C [cholesterol]
[1]; human vs rat FABP1
  fold weaker affinity of human FABP1 compared to rat FABP1: 3.5 fold
[4]
  fold increase in affinity of human FABP1 by T94A substitution: 3 fold

## CCCCC/C=C\C/C=C\C/C=C\C/C=C\CCCC(=O)OC(CO)CO [2-AG, 2-arachidonoylglycerol]
[5]
  Ki: 205 ± 3 nM

## CCCCC/C=C\C/C=C\C/C=C\C/C=C\CCCC(=O)NCCO [AEA, N-arachidonoylethanolamide]
[5]
  Ki: 400 ± 20 nM
[6]
  displacement of human FABP1 bound DAUDA: did displace
[7]
  displacement of human FABP1 bound cis-parinaroyl CoA: did not displace

## O=C(CCC/C=C\C/C=C\C/C=C\C/C=C\CCCCCNc1ccc([N+](=O)[O-])c2nonc12)OC(CO)CO [NBD-2-AG]
[2]
  maximal uptake, fold higher than that of NBD-ARA: at least 1.6 fold
[3]
  number of ligand molecules bound per FABP1 (binding sites): single
  Kd: 250 ± 50 nM

## CCCCC/C=C\C/C=C\C/C=C\C/C=C\CCCC(=O)O [ARA, arachidonic acid]
[8]
  Ki: 113 ± 6 nM

## O=C(O)CCC/C=C\C/C=C\C/C=C\C/C=C\CCCCCNc1ccc([N+](=O)[O-])c2nonc12 [NBD-ARA, 20-[(7-nitro-2-1,3-benzoxadiazol-4-yl)amino] arachidonic acid]
[3]
  number of ligand molecules bound per FABP1 (binding sites): two
  Kd: 660 ± 60 nM
